From US8524716B2, “Macrocyclic indoles as hepatitis C virus inhibitors” (priority 2007, dated 2013)
pIC50: −log10 of the molar value. Read-outs that look alike come from different tables or passages of the source.

Experiments:
HCV NS5B = HCV NS5B (Hepatitis C virus genotype 1b (strain HC-J4), UniProt O92972); assay: biochemical; format: biochemical; details: for IC50: 100 nM enzyme, [3H]GTP incorporation, 2 h at 25° C., read-out: IC50 (μM) Enzymatic assay
Method: The cDNA encoding NS5B amino acid 1-570 (HC-J4, genotype 1b, pCV-J4L6S, genebank accession number AF054247) was subcloned into the Nhe I and Xho I restriction sites of pET-21b. Expression of the subsequent His-tagged C-terminal 21 amino acid deleted NS5B was performed as follows:
The NS5B expression construct was transformed into E. coli BL21(DE3) (Novagen, Madison, Wis.). Five milliliters of LB-medium supplemented with ampicillin (50 μg/mL) was inoculated with one colony. When the pre-culture reached an optical density of 0.6 measured at 600 nm, it was transferred to fresh LB-medium supplemented with ampicillin, at a ratio of 1:200. Cells were grown to an optical density at 600 nm of 0.6, after which the expression cultures were shifted to a growth temperature of 20° C. following induction with isopropyl-1-thio-β-D-galactopyranoside and MgCl2 at a final concentration of 0.4 mM and 10 μM, respectively. After ten hours of induction, cells were harvested by centrifugation and resuspended in 20 mM Tris-HCl, pH 7.5, 300 mM NaCl, 10% glycerol, 0.1% NP40, 4 mM MgCl2, 5 mM DTT supplemented with EDTA-free Complete Protease Inhibitor (Roche, Basel, Switzerland). Cell suspensions were disrupted by sonication and incubated with 10-15 mg/L of DNase I (Roche, Basel, Switzerland) for 30 minutes. Cell debris was removed through ultracentrifugation at 30,000×g for 1 hour and clarified cell lysate was flash frozen and stored at −80° C. prior to purification.
Clarified cell lysate was thawed and subsequently loaded onto a 5 mL pre-packed HisTrap FF column equilibrated with 25 mM HEPES, pH 7.5, 500 mM NaCl, 10% glycerol and 5 mM DTT. Proteins were eluted with 500 mM imidazole at a flow rate of 1 mL/min. Fractions containing the protein of interest were applied onto a pre-packed 26/10 HiPrep Desalting Column equilibrated with 25 mM HEPES, pH 7.5, 150 mM NaCl, 10% glycerol and 5 mM DTT. The buffer-exchanged NS5B peak was then applied onto a 20 mL Poly-U Sepharose column. Protein was eluted with an increasing salt gradient and fractions collected. Protein purity was assessed on Nu-PAGE pre-cast gels (Invitrogen, Carlsbad, Calif.). Purified NS5B samples were concentrated using Centri-Prep concentrators (Millipore, Billerica, Mass., USA) and protein concentrations were determined by Bradford assay (Pierce, Rockford, Ill., USA).
Measurement of HCV NS5B polymerization activity was performed by evaluating the amount of radio labeled GTP incorporated by the enzyme in a newly synthesized RNA using heteropolymeric RNA template/primer. The high-throughput RNA dependent RNA polymerase (RdRp) assay was carried out in 384-well plates using 100 nM enzyme, 300 nM 5′-biotinylated oligo(rG13)/poly(rC) primer-template, 600 nM of GTP, and 0.1 μCi of [^3H]GTP in 25 mM Tris-HCl, pH 7.5, 5 mM MgCl2, 25 mM KCl, 17 mM NaCl and 3 mM of dithiothreitol (DTT). Test compounds were dissolved in DMSO. The test compounds were added to the preformed polymerase-template complex, and incubated at room temperature for 15 min before the addition of nucleoside triphosphates (NTP). The 30 μl reaction was terminated after 2 h at 25° C. upon addition of 30 μl A PVT-SPA beads (Amersham Biosciences RPNQ0009, 5 mg/ml in 0.5 M EDTA).

[1] = test system: HCV replicons (NS3-NS5B regions of HCV type 1b) in Huh-Luc cells; assay: HCV replicon assay in Huh-7 luc/neo (Huh-Luc) cells, luciferase readout; format: cell-based; details: three days incubation, luciferase activity
Excerpt: The compounds of formula (I) were examined for activity in the inhibition of HCV RNA replication in a cellular assay. […] The cellular assay was based on a bicistronic expression construct, as described by Lohmann et al. (1999) Science vol. 285 pp. 110-113 with modifications described by Krieger et al. (2001) Journal of Virology 75: 4614-4624, in a multi-target screening strategy. In essence, the method was as follows.
The assay utilized the stably transfected cell line Huh-7 luc/neo (hereafter referred to as Huh-Luc). This cell line harbors an RNA encoding a bicistronic expression construct comprising the wild type NS3-NS5B regions of HCV type 1b translated from an Internal Ribosome Entry Site (IRES) from encephalomyocarditis virus (EMCV), preceded by a reporter portion (firefly luciferase), and a selectable marker portion (neo^R, neomycine phosphotransferase). The construct is bordered by 5′ and 3′ NTRs (non-translated regions) from HCV type 1b. Continued culture of the replicon cells in the presence of G418 (neo^R) is dependent on the replication of the HCV RNA. The stably transfected replicon cells that express HCV RNA, which replicates autonomously and to high levels, encoding inter alia luciferase, were used for screening the antiviral compounds.
The replicon cells were plated in 384 well plates in the presence of the test and control compounds which were added in various concentrations. Following an incubation of three days, HCV replication was measured by assaying luciferase activity (using standard luciferase assay substrates and reagents and a Perkin Elmer ViewLux™ ultraHTS microplate imager). […] The inhibitory activity of the compound on luciferase activity was monitored on the Huh-Luc cells, enabling a dose-response curve for each test compound. EC50 values were then calculated, which value represents the amount of the compound required to decrease the level of detected luciferase activity by 50%, or more specifically, the ability of the genetically linked HCV replicon RNA to replicate.

Sequence of HCV NS5B (O92972 2420-3010 limits assumed): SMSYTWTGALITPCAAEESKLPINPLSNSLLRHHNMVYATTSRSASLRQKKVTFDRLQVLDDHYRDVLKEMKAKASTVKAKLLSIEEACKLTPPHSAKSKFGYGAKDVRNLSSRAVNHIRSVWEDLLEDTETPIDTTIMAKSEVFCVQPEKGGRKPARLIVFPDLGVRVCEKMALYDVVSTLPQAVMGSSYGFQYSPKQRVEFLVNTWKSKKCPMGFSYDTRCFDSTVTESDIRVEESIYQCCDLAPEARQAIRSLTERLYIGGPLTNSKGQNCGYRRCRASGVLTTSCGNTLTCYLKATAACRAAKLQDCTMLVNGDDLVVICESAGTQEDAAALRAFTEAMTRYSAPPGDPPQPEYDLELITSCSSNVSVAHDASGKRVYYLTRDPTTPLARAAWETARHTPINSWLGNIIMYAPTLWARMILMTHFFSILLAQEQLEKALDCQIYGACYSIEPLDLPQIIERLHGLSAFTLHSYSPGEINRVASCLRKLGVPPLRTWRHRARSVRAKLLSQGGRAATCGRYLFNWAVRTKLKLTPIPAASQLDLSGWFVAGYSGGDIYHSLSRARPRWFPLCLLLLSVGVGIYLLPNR

Compound	IC50 (HCV NS5B) [µM]	EC50 ([1]; Hepatitis C virus, Huh-7, 72 h) [µM]	pIC50 (HCV NS5B)	EC50 [1] [µM]
COc1ccc(Br)c(COc2ccc(-c3c(C4CCCCC4)c4ccc5cc4n3CC(=O)NCCCCCCNC5=O)cc2)c1 [Cpd 9, 18-[4-(2-bromo-5-methoxybenzyloxy)phenyl]-17-cyclohexyl-1,4,11-triaza-tricyclo[11.5.2.0^16,19]icosa-13(20),14,16(19),17-tetraene-3,12-dione]	13	4.8		
COc1ccc(-c2ccc(Cl)cc2)c(COc2ccc(-c3c(C4CCCCC4)c4ccc5cc4n3CC(=O)NCCCCCCNC5=O)cc2)c1 [Cpd 10, 18-[4-(4′-chloro-4-methoxybiphenyl-2-ylmethoxy)phenyl]-17-cyclohexyl-1,4,11-triazatricyclo[11.5.2.0^16,19]icosa-13(20),14,16(19),17-tetraene-3,12-dione]		> 32	5.16	
O=C1Cn2c(-c3ccc(OCc4cc(N5CCCC5=O)ccc4N4CCOCC4)cc3)c(C3CCCCC3)c3ccc(cc32)C(=O)NS(=O)(=O)CC=CCCN1 [Cpd 13, 17-Cyclohexyl-18-[4-[2-morpholin-4-yl-5-(2-oxo-pyrrolidin-1-yl)-benzyloxy]-phenyl]-10,10-dioxo-10λ^6-thia-1,4,11-triaza-tricyclo[11.5.2.0^16,19]icosa-7,13(20),14,16(19),17-pentaene-3,12-dione]		2.36	7.40	
CN1CCCCCNC(=O)Cn2c(-c3ccccc3)c(C3CCCCC3)c3ccc(cc32)C(=O)NS1(=O)=O [Cpd 22, 18-Cyclohexyl-10-methyl-11,11-dioxo-19-phenyl-11λ^6-thia-1,4,10,12-tetraaza-tricyclo[12.5.2.017,20]henicosa-14(21),15,17(20),18-tetraene-3,13-dione]		0.43		
Cc1nc(C)c(-c2ccc3cc(-c4c(C5CCCCC5)c5ccc6cc5n4CC(=O)NCC/C=C\CCNC6=O)ccc3n2)s1 [Cpd 17, 17-Cyclohexyl-18-[2-(2,4-dimethyl-thiazol-5-yl)-quinolin-6-yl]-1,4,11-triaza-tricyclo[11.5.2.0^16,18]icosa-7,13(20),14,16(19),17-pentaene-3,12-dione]	2.7	5.39		
CN1C/C=C\CN(C)S(=O)(=O)NC(=O)c2ccc3c(C4CCCCC4)c(-c4ccc(Cl)cc4)n(c3c2)CC1=O [Cpd 23, 18-(4-Chloro-phenyl)-17-cyclohexyl-4,9-dimethyl-10,10-dioxo-10λ^6-thia-1,4,9,11-tetraaza-tricyclo[11.5.2.016,19]icosa-6,13(20),14,16(19),17-pentaene-3,12-dione]	0.45	1.08		
CN1CCCCCNC(=O)Cn2c(-c3ccc(Cl)cc3)c(C3CCCCC3)c3ccc(cc32)C(=O)NS1(=O)=O [Cpd 21, 19-(4-Chloro-phenyl)-18-cyclohexyl-10-methyl-11,11-dioxo-11λ^6-thia-1,4,10,12-tetraaza-tricyclo[12.5.2.017,20]henicosa-14(21),15,17(20),18-tetraene-3,13-dione]	0.19	0.59		
CN1CCCCCNC(=O)Cn2c(-c3ccoc3)c(C3CCCCC3)c3ccc(cc32)C(=O)NS1(=O)=O [Cpd 30, 18-Cyclohexyl-19-furan-3-yl-10-methyl-11,11-dioxo-11λ^6-thia-1,4,10,12-tetraaza-tricyclo[12.5.2.017,20]henicosa-14(21),15,17(20),18-tetraene-3,13-dione]		0.79		
O=C1Cn2c(-c3ccoc3)c(C3CCCCC3)c3ccc(cc32)C(=O)NCC/C=C\CCN1 [Cpd 1, 17-cyclohexyl-18-(furan-3-yl)-1,4,11-triaza-tricyclo-[11.5.2.0^16,19]icosa-7,13(20),14,16(19),17-pentaene-3,12-dione]	2.2	3.4		
17-Cyclohexyl-18-furan-3-yl-9-methyl-10,10-dioxo-10λ^6-thia-1,4,9,11-tetraaza-tricyclo[11.5.2.016,19]icosa-13(20),14,16(19),17-tetraene-3,12-dione [Cpd 28]				1.58
O=C1Cn2c(-c3ccoc3)c(C3CCCCC3)c3ccc(cc32)C(=O)NCCCCCCN1 [Cpd 2, 17-Cyclohexyl-18-(furan-3-yl)-1,4,11-triaza-tricyclo[11.5.2.0^16,19]icosa-13(20),14,16(19),17-tetraene-3,12-dione]	9.5	4.3		
CS(=O)(=O)N1CCN(c2ccc(N)cc2COc2ccc(-c3c(C4CCCCC4)c4ccc5cc4n3CC(=O)NCC/C=C\CCNC5=O)cc2)CC1 [Cpd 4, 17-cyclohexyl-18-[4-[2-(4-methanesulfonylpiperazin-1-yl)-5-amino-benzyloxy]phenyl]-1,4,11-triazatricyclo[11.5.2.0^16,19]icosa-7,13(20),14,16(19),17-pentaene-3,12-dione]	0.27	0.24		
O=C1Cn2c(-c3ccc(O)cc3)c(C3CCCCC3)c3ccc(cc32)C(=O)NCCCCCCN1 [Cpd 8]	2.79			> 32
CS(=O)(=O)N1CCN(c2ccc([N+](=O)[O-])cc2COc2ccc(-c3c(C4CCCCC4)c4ccc5cc4n3CC(=O)NCC/C=C\CCNC5=O)cc2)CC1 [Cpd 3, 17-cyclohexyl-18-[4-[2-(4-methanesulfonylpiperazin-1-yl)-5-nitrobenzyloxy]phenyl]-1,4,11-triazatricyclo[11.5.2.0^16,19]icosa-7,13(20),14,16(19),17-pentaene-3,12-dione]	1.1	0.72		
CN1CC=CCCNC(=O)Cn2c(-c3ccoc3)c(C3CCCCC3)c3ccc(cc32)C(=O)NS1(=O)=O [Cpd 29, 18-Cyclohexyl-19-furan-3-yl-10-methyl-11,11-dioxo-11λ^6-thia-1,4,10,12-tetraaza-tricyclo[12.5.2.017,20]henicosa-7,14(21),15,17(20),18-pentaene-3,13-dione]	0.051	0.65		
CN1C/C=C\CCNC(=O)Cn2c(-c3ccc(Cl)cc3)c(C3CCCCC3)c3ccc(cc32)C(=O)NS1(=O)=O [Cpd 20, 19-(4-Chloro-phenyl)-18-cyclohexyl-10-methyl-11,11-dioxo-11λ^6-thia-1,4,10,12-tetraaza-tricyclo[12.5.2.017,20]henicosa-7,14(21),15,17(20),18-pentaene-3,13-dione]		0.61		
